Square brackets hold non-standard residues; d marks the D form. Ends that are not written are not given here. Peptide text beside a SMILES is read from it. Hyp = O=C(O)[C@@H]1C[C@@H](O)CN1
How the values were obtained:
in vivo = details: male, Wister, rat, po, 215 nmol/10 mL
Description: (§1) Wister strain male rats (170 g) were caused to go on a fast of one night and then subjected to experiments.
(§2) As a test method, a cannula was equipped to a heart and portal vein of each rat, and one-directional perfusion was carried out. The perfusion liquid being used was prepared in a way that to a Krebs-Ringer bicarbonate solution (KRB solution, pH 7.4) comprising 9.0 g of NaCl, 8 mL of 5.75% KCl, 2 mL of 10.55% KH2PO4, 2 mL of 19% MgSO4, 2.73 g of NaHCO3, 3.43 g of glucose and 1255 mL of water, there was added 10 g of bovine serum albumin, 0.5 mL of dexamethasone (0.123 mg/mL) and 0.5 mL of noradrenaline (0.024 mg/mL) relative to 500 mL of the aforementioned KRB solution.
(§3) An amount of 0.5 mL of 30% sulfosalicylic acid was added to 5.0 mL of perfusion sample liquid taken from portal vein, and the resultant mixture was vigorously stirred and then left in a refrigerator for one night. This sample was centrifuged at 3000 rpm for 10 minutes to remove protein.
(§4) Furthermore, 3.0 mL of the aforementioned centrifugal supernatant was weighed out and placed into a screw opening test tube, and thereto an equivalent of concentrated hydrochloric acid was added to carry out hydrolysis at 110° C. for 24 hours. Concentration to dryness was carried out with an evaporator to remove hydrochloric acid, and then the residue was dissolved into 5 mL of distilled water, and thereto several drops of saturated lithium hydroxide solution were added to adjust pH to the range of 5 to 7, and the volume was adjusted to 10 mL. […] A value obtained by subtracting the free type Hyp amount before hydrolysis from the total Hyp amount after hydrolysis is a peptide-form Hyp amount.
(§5) Analysis of the dipeptides in the perfusion liquid was carried out by reversed-phase HPLC analysis. As HPLC apparatus, LCSS-905 system produced by JASCO Corporation comprising a liquid-feeding pump, a decassa, an autosamplor, a column oven, ultraviolet spectrophotometer, a printer and a system controller was used. As the reversed-phase column, Nova Pak C18 (3.9×150 mm) was used.
(§6) A linear-gradient moving bed of a 0.1% TFA-containing acetonitrile-water system was used, the injection amount of the sample was 70 μL, and the flow rate was 1 mL/min.
(§7) As HPLC apparatus, U980HPLC (produced by JASCO Corporation) was used. This apparatus was equipped with an ODS (C18) column (Mightysil RP-18, 2×250 mm, produced by Kanto Chemical Co Ltd). The moving bed solvent was a 0.2% formic acid-containing acetonitrile-water system, and the concentration was raised from 0% to 40% acetonitrile by linear gradient in 40 minutes, and washing was carried out with 100% acetonitrile for 10 minutes. The injection amount of the sample was 10 μL, and the column temperature was 40° C.
(§8) The MS analysis was carried out in accordance with an MS/MS system with a Quattro LC mass spectrophotometer (Micromass, Manchester, UK) by a Multiple Reaction Monitoring method of 4 channels. That is to say, an eluate from the HPLC was monitored by m/z being [M+H]^+ and m/s of its fragment ion species.

[1] = system: osteoblast stock MC3T3-E1; assay: Evaluation Test 1-2: promotion of differentiation and activation of osteoblasts (ALP); type: cell-based; details: MC3T3-E1, 2.5 mmol/L end concentration, after 10 days culture, control (blank) = 100
Description: Each of dexamethasone (end concentration: 1 nmol/L), β-glycerophosphoric acid (end concentration: 5 mmol/L), and ascorbic acid (end concentration: 100 μg/mL) was added to an osteoblast stock MC3T3-E1 culture liquid, and then the Hyp-Gly and a 1:1 mixture of the Hyp-Gly and the Pro-Hyp were used, and each of them was added to the aforementioned culture liquid so as to be 2.5 mmol/L in end concentration. After 10 days from the culture, each promotion activity of alkaline phosphatase (ALP) being a marker enzyme for differentiation and calcification of osteoblasts was examined. In the same way, the ALP promotion activity when using the other dipeptides (Pro-Hyp, Ala-Hyp, Leu-Hyp, Phe-Hyp, Ser-Hyp), the tripeptide (Pro-Hyp-Gly) and the amino acids (Pro, Hyp) was examined. Furthermore, as a control, the ALP promotion activity when adding no peptide (blank) was also examined.

osteoclasts = assay: Evaluation Test 1-1: Pit assay, osteoclasts cultured on dentin slices; type: cell-based, mouse; details: control (blank) = 100, n = 6; for Relative number (%) of TRAP positive multinucleate giant cells (osteoclasts) in culture on dentin slices: culture about 1 week on dentin slices; for Relative number (%) of Pit: number of absorption pits on dentin slices, culture about 1 week
Description: In addition, the degree of inhibition of differentiation and activation of osteoclasts by the various peptides and amino acids was evaluated by the following Pit assay. That is to say, the Pit assay where osteoclasts were cultured on […] was carried out in accordance with Kakudo S, et al. (1996). J. Bone Miner. Metab. 14: 129-136, specifically, as follows.
Precursory cells of osteoclasts derived from young mouse […] were freeze-preserved at −80° C. together with a bone marrow stroma cells-containing suspension in the presence of 10% DMSO, thereby making matured osteoclasts extinct.
These cells of 2.0×10^5 in number were seeded into each well of a 96-well plate where dentin slices were set, and each peptide to be tested was added to the culture liquid, and culture was carried out at 37° C. in 5% CO2 for about 1 week. Thereafter, cells were removed from the dentin slices by a silicon-made rubber POLICEMAN, and then the dentin slices were dyed with an […] for several minutes. Hereupon, the number of TRAP dyeing positive multinucleate giant cells (osteoclasts) was counted by the TRAP dyeing, and the number relative to the number of cells in the control (blank) was calculated. Thereafter, the Pit number (number of absorption pits) by osteoclasts was counted under a microscope, and the degree of inhibition of activity of osteoclasts by each peptide to be tested was indicated by the ratio relative to the blank (control).

[2] = system: osteoclasts (primary mouse bone marrow cell culture); assay: Evaluation Test 1-1: osteoclast differentiation culture on plastic Petri dish (TRAP); type: cell-based; details: 625 μM end concentration, after 6 days culture, control (blank) = 100, n = 6
Description: The evaluation was carried out in accordance with Kobayashi Y. et al.'s osteoclast differentiation culture method [J. Bone Miner. Metab. (2004) 22: p. 318-328].
That is to say, the Hyp-Gly and a 1:1 mixture of the Hyp-Gly and the Pro-Hyp were used, and each of them was added to a primary mouse bone marrow cell culture liquid so as to be 625 μM in end concentration. After 6 days from the culture, each inhibition activity of tartaric acid resistant acid phosphatase (TRAP) being a marker enzyme was examined. In the same way, the TRAP inhibition activity when using the other dipeptides (Pro-Hyp, Ala-Hyp, Leu-Hyp, Phe-Hyp, Ser-Hyp), the tripeptide (Pro-Hyp-Gly) and the amino acids (Pro, Hyp) was examined. Furthermore, as a control, the TRAP inhibition activity when adding no peptide (blank) was also examined.

[3] = system: precursory cartilage cell stock ATDC5; assay: Evaluation Test 2-2: ALP inhibition activity of Pro-Hyp and comparisons; type: cell-based; details: ATDC5, 2.5 mM, after 5 days culture, N group = 1.0
Description: The aforementioned PC (PC group), FC (FC group) and PC-CA (PC-CA group) were used, and each collagen peptide was added to a precursory cartilage cell stock ATDC5 culture liquid so as to be 0.1% in end concentration. After 5 days from the culture, each inhibition activity of alkaline phosphatase (ALP) being a marker enzyme for hypertrophied cartilages and calcification was examined. For comparison, the ALP inhibition activity when adding no peptide (N group), the ALP inhibition activity when using peptone (Pe group) of 0.1% in end concentration, and the ALP inhibition activity when using the aforementioned PC-Cont (PC-Cont group) and PC-CA-Cont (PC-CA-Cont group) were also examined.
The ALP inhibition activity was examined in the same way as of evaluation test 2-1 except that: a dipeptide Pro-Hyp as synthesized by a solid-phase method (produced by PH Japan) ([Pro-Hyp] group) was used, the amount of its addition was changed to 2.5 mM and, for comparison, no peptide was added (N group) or glycine being a free amino acid (Gly group), proline being a free amino acid (Pro group), hydroxyproline being a free amino acid (Hyp group), a free amino acid mixture of proline and hydroxyproline ([Pro+Hyp] group), a free amino acid mixture of glycine, proline and hydroxyproline ([Gly+Pro+Hyp] group), and a tripeptide Pro-Hyp-Gly as synthesized by a solid-phase method (produced by PH Japan) ([Pro-Hyp-Gly] group) were used.

[4] = system: precursory cartilage cell stock ATDC5; assay: Evaluation Test 1-3: inhibition of degeneration of cartilage cells (ALP); type: cell-based; details: ATDC5, 2.5 mmol/L end concentration, after 5 days culture, control (blank) = 100
Description: The Hyp-Gly, a 1:1 mixture of the Hyp-Gly and the Pro-Hyp and a 1:1:1 mixture of the Hyp-Gly, the Pro-Hyp and the Ala-Hyp were used, and each dipeptide was added to a precursory cartilage cell stock ATDC5 culture liquid so as to be 2.5 mmol/L in end concentration. After 5 days from the culture, each inhibition activity of alkaline phosphatase (ALP) being a marker enzyme for hypertrophied cartilages and calcification was examined. In the same way, the ALP activity when using the other dipeptides (Pro-Hyp, Ala-Hyp, Leu-Hyp, Phe-Hyp, Ser-Hyp), the tripeptide (Pro-Hyp-Gly) and the amino acids (Pro, Hyp) was examined. Furthermore, as a control, the ALP activity when adding no peptide (blank) was also examined.

[5] = rat, in vivo
Description: as §1, §2, §3, §4, §5, §6, §7, §8

Row | Molecule | level at time molar (in vivo) [µM] | Relative value (%) of ALP [1] [%] | Relative number (%) of TRAP positive multinucleate giant cells (osteoclasts) in culture on dentin slices (osteoclasts) [%] | Relative number (%) of Pit (osteoclasts) [%] | Relative area (%) of TRAP positive multinucleate giant cells (osteoclasts) in culture on plastic Petri dish [2] [%] | Relative number (%) of TRAP positive multinucleate giant cells (osteoclasts) in culture on plastic Petri dish [2] [%] | Relative ALP activity [3] | Relative value (%) of ALP [4] [%] | Intestine absorption, in words [5]
1 | N[C@@H](CO)C(=O)N1C[C@H](O)C[C@H]1C(=O)O [Comparative Example 3, Ser-Hyp] (H-Ser-[Hyp]-OH; N-terminus and C-terminus assumed) | 0.7 | – | – | – | – | – | – | – | –
2 | O=C(O)[C@@H]1CCCN1 [Comparative Example 5, Proline] | – | 97 ± 15 | 119 ± 20 | 121 ± 23 | 125 ± 69 | 119 ± 44 | 0.98 ± 0.1 | 98 ± 10 | –
3 | O=C(O)[C@@H]1C[C@@H](O)CN1 [Comparative Example 6, hydroxyproline] | – | 103 ± 25 | 141 ± 9 | 131 ± 11 | 117 ± 13 | 126 ± 4 | 1.0 ± 0.01 | 101 ± 1 | –
4 | O=C(O)CNC(=O)[C@@H]1C[C@@H](O)CN1 [Example 1, Hyp-Gly] (H-[Hyp]-Gly-OH; N-terminus and C-terminus assumed) | 9.8 | – | – | – | – | – | – | – | absorbed into intestine extremely rapidly and stably (without being decomposed into amino acids)
5 | NCC(=O)O [Gly, glycine] | – | – | – | – | – | – | 1.1 ± 0.01 | – | –
6 | O=C(O)[C@@H]1C[C@@H](O)CN1C(=O)[C@@H]1CCCN1 [Referential Example 1-1, Pro-Hyp] (H-Pro-[Hyp]-OH; N-terminus and C-terminus assumed) | 21.3 | – | – | – | – | – | – | – | absorbed into intestine extremely rapidly and stably (without being decomposed into amino acids)
7 | C[C@H](N)C(=O)N1C[C@H](O)C[C@H]1C(=O)O [Referential Example 1-2, Ala-Hyp] (H-Ala-[Hyp]-OH; N-terminus and C-terminus assumed) | 1.2 | – | – | – | – | – | – | – | –
8 | Leu-Hyp [Comparative Example 1] | – | 92 ± 12 | 101 ± 12 | 91 ± 11 | 83 ± 27 | 88 ± 22 | – | 93 ± 12 | –
9 | Phe-Hyp [Comparative Example 2] | – | 109 ± 11 | 98 ± 11 | 109 ± 15 | 118 ± 21 | 119 ± 16 | – | 109 ± 11 | –
10 | Pro-[Hyp]-Gly [Comparative Example 4] | – | 103 ± 22 | 91 ± 11 | 97 ± 13 | 113 ± 11 | 109 ± 15 | 0.8 ± 0.01 | 84 ± 14 | –

— patent US8227424B2, “Collagen peptide, dipeptide and malady inhibitor” (Nitta Gelatin Inc., priority 2008, dated 2012)
